Reference: ChEMBL document CHEMBL3044890, “Peroxidizing Phytotoxicities of 1, 2-Alkylene-1, 2, 4-triazolidines and 3, 4-Alkylene-1, 3, 4-thiadiazolidines” (J Pestic Sci, 1996)

Molecular target: T1, Protoporphyrinogen IX oxidase (Zea mays, UniProt Q9FYV8)
T1 sequence (Q9FYV8 whole entry): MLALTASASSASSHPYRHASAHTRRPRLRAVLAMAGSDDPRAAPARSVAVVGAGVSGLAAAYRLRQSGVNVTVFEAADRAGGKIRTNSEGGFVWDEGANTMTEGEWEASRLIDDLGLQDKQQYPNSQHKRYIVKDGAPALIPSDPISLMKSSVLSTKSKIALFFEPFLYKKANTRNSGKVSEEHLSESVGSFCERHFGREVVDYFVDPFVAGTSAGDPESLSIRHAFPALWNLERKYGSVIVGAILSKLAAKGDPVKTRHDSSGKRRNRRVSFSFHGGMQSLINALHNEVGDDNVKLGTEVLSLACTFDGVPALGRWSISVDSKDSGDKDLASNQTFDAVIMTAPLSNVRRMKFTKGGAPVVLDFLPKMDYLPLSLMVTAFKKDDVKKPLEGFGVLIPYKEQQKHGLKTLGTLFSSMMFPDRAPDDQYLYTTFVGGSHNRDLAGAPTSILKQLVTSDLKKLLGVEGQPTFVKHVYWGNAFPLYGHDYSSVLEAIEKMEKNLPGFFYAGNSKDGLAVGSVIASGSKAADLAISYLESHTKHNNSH
Experiment: Inhibition of Zea mays cv. Anjou (maize) plastid Protoporphyrinogen IX oxidase assessed as inhibition of protoporphyrin IX by fluorescence spectrophotometry
Details: read-out: pI50 (converted)

| SMILES | IC50 |
| --- | --- |
| O=c1s/c(=N\c2ccc(Br)cc2)n2n1CCC2 | 3630 nM |
| O=c1n(-c2ccc(Br)cc2)c(=O)n2n1CCCC2 | 339 nM |
| S=c1n(-c2ccc(Br)cc2)c(=S)n2n1CCC2 | 28.8 nM |
| O=C1C2=C(CCCC2)C(=O)N1c1ccc(Br)cc1 | 50.1 nM |
| O=c1n(-c2ccc(Br)cc2)c(=O)n2n1CCC2 | 617 nM |
| S=c1n(-c2ccc(Br)cc2)c(=S)n2n1CCCCC2 | 70.8 nM |
| O=c1n(-c2ccc(Br)cc2)c(=O)n2n1CCCCC2 | 2510 nM |
| O=c1n(-c2ccc(Br)cc2)c(=S)n2n1CCCC2 | 12.9 nM |
| O=c1n(-c2ccc(Br)cc2)c(=S)n2n1CCC2 | 53.7 nM |
| O=c1n(-c2ccc(Br)cc2)c(=S)n2n1CCCCC2 | 129 nM |
| S=c1s/c(=N\c2ccc(Br)cc2)n2n1CCC2 | 324 nM |
